Assays:
TRPM4 channel = molecular target: T1, TRPM4 channel (Homo sapiens, UniProt Q8TD43); test: TRPM4 channel function, whole-cell patch clamp in PC3 cells; type: cell-based; details: 10 μM compound, pre-incubated 30-60 min
T1 construct: PC3 cells are known to express TRPM4 channels; endogenous in cells; host or cells: PC3 prostate cancer cell line
From the text: To assess any direct impact of compound P4 and compound P15 on TRPM4 channel function independent of NMDA receptors, the inventors used the prostate cancer cell line PC3 and patch clamp recordings. PC3 cells are known to express TRPM4 channels (C. Holzmann et al., Oncotarget. 6, 41783-93 (2015)). TRPM4 currents in turn are characterized by their calcium dependence and outward rectification (P. Launay et al., Cell. 109, 397-407 (2002)). Briefly, whole-cell patch clamp recordings were made from PC3 cells plated on 12 mm round coverslips secured with a platinum ring in a recording chamber (OAC-1, Science Products GmbH) mounted on a fixed-stage upright microscope (BX51WI, Olympus). […] Patch electrodes (3-4 MΩ) were made from 1.5 mm borosilicate glass and filled with cesium-based solutions (in mM: CsCl, 145; NaCl, 8; HEPES, 10; MgCl2, 1; plus either EGTA, 0.2 for a free Ca^2+ concentration of zero; or EGTA, 10 and CaCl2), 9.4 for a calculated free Ca^2+ concentration of 10 μM; Maxchelator, Stanford University). Recordings were made with a Multiclamp 700B amplifier, digitized through a Digidata 1550B and acquired and analyzed using pClamp 10 software (Molecular Devices). Access resistance (range: 10-20 MΩ) was monitored regularly during voltage clamp recordings and data was rejected if changes greater than 20% occurred.

[1] = tested on: primary mouse hippocampal neurons; test: NMDA induced cell death (excitotoxicity) in cultured primary neurons; type: cell-based; details: polypeptide expressed via rAAV infection on DIV3; NMDA 20 μM for 10 min; cell death assessed 24 h later

T1 sequence (Q8TD43 whole entry): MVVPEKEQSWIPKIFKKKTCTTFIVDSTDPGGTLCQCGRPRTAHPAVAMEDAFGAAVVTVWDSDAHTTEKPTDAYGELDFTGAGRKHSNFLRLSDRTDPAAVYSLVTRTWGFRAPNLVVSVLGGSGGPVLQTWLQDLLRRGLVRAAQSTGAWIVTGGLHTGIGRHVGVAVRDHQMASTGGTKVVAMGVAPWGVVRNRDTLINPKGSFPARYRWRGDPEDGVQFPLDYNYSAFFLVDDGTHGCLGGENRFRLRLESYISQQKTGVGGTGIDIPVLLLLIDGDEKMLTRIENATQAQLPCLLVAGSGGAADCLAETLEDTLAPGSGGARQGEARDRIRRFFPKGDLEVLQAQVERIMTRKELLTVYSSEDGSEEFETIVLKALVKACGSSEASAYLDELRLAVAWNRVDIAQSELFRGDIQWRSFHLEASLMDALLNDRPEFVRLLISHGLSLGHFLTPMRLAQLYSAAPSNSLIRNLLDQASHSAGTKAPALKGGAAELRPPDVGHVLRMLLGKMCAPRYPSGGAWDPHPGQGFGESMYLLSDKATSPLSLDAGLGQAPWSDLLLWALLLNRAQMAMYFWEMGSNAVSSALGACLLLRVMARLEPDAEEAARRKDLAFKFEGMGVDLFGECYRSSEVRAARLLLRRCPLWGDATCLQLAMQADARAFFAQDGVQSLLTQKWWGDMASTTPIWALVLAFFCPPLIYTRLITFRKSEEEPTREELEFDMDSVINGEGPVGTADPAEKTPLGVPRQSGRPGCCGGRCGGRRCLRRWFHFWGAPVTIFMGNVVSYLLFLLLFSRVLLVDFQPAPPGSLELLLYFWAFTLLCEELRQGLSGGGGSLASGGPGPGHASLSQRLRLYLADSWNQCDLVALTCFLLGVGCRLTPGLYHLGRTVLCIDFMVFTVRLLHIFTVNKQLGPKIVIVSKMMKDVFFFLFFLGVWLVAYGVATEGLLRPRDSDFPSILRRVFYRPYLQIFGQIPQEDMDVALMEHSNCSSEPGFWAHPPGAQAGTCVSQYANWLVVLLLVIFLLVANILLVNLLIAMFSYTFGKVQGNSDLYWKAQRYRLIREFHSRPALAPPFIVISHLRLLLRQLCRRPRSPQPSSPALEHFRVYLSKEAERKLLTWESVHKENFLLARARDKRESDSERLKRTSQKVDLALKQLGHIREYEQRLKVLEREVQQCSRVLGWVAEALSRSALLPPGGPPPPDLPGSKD

Compound	TRPM4-like outwardly rectifying current activated by 10 μM Ca2+ (TRPM4 channel)	protection against NMDA induced cell death (neuroprotective effect) [1]
CCN(CCN)Cc1cccc(Br)c1 [P4]	not affected	–
SEQ ID NO:5: polypeptide, amino acid residues 633-689 of mouse TRPM4 (NSEERAARLLLRRCPLWGEATCLQLAMQADARAFFAQDGVQSLLTQKWWGEMDSTTP; listed as Mus musculus)	–	neuroprotective

From US20260242440A1, “NOVEL MEANS TO MODULATE NMDA RECEPTOR-MEDIATED TOXICITY” (FUNDAMENTAL PHARMA GMBH, priority 2018, published 2026)
